Results on one molecule are retold here after ChEMBL document CHEMBL4145686, “Discovery of a Potent and Selective Steroidal Glucocorticoid Receptor Antagonist (ORIC-101)” (J Med Chem, 2018).

For data set [1], the target named is T1, Glucocorticoid receptor (Homo sapiens, UniProt P04150).
T1 sequence (P04150 whole entry): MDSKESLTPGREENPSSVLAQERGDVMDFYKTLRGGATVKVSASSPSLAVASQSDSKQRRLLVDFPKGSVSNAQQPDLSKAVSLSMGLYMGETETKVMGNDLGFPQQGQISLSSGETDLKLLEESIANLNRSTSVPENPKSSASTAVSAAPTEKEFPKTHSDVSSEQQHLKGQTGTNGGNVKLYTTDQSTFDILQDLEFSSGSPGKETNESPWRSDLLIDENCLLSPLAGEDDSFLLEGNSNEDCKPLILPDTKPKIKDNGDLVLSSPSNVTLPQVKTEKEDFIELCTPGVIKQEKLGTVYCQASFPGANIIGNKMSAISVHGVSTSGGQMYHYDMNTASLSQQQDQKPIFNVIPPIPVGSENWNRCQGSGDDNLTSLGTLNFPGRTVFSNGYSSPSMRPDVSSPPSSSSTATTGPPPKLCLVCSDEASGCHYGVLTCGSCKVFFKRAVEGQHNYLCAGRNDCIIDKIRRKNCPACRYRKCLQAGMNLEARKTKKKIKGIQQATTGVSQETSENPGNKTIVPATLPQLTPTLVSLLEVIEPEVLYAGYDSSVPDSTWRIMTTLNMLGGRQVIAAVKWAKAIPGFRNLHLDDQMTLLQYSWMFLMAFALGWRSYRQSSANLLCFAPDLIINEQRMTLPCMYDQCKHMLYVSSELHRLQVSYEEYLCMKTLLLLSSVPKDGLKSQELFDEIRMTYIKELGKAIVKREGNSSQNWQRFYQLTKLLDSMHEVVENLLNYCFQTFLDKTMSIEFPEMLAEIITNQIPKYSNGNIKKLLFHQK
Put plainly: Antagonist activity at human GR expressed in CHO-K1 cells assessed as reduction in dexamethasone-induced response incubated for 20 hrs by luciferase reporter gene assay. Format: cell-based. Background: In a reporter assay the amount or activity of a reporter protein is the signal.

Data set [2] is described as follows: Oral bioavailability in mouse at 5 mg/kg. Format: ADME, organism-based. The following applies: in vivo.
In data set [3] the target is T2, Androgen receptor (Homo sapiens, UniProt P10275).
T2 sequence (P10275 whole entry): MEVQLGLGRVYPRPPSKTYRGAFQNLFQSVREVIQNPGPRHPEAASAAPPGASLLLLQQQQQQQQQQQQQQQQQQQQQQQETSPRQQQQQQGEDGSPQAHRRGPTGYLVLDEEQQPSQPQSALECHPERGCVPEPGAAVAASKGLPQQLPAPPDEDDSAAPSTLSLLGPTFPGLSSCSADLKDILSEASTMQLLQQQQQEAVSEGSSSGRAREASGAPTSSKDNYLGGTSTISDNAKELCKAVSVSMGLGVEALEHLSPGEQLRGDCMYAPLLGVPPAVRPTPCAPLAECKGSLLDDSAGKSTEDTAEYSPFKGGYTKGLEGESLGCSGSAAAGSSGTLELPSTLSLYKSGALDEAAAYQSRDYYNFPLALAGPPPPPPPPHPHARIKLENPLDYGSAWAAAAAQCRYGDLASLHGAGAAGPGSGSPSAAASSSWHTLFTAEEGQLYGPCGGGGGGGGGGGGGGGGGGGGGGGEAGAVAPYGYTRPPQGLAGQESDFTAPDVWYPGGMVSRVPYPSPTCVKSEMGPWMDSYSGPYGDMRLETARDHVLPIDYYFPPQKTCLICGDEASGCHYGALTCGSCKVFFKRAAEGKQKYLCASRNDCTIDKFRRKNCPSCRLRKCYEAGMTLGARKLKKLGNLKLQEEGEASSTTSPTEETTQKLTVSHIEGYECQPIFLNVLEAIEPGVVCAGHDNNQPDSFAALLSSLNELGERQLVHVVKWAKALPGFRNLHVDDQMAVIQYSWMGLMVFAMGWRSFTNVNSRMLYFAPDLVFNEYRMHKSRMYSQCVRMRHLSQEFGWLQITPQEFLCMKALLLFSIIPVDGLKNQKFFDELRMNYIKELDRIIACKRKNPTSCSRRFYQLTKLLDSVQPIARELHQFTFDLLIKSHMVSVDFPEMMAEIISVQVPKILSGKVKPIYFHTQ
Put plainly: Agonist activity at AR in human MDA-MB-453 cells assessed as increase in SEC14L2 gene expression at 111 to 333 nM incubated for 24 hrs by RT-qPCR method. The data set is classed as cell-based. The following applies: mda-mb-453, 24 h, 0.333 µM. A general note: Quantitative PCR measures a nucleic acid by following its amplification.

A short description of data set [4]: Clearance in rat at 0.5 mg/kg, iv. The following applies: in vivo. The data set is classed as ADME, organism-based.
Data set [5] in a line: Half life in mini pig at 0.5 mg/kg, iv. Format: ADME, organism-based, Sus scrofa. The following applies: in vivo.
Data set [6] in a line: Half life in rat at 0.5 mg/kg, iv. As to conditions: in vivo. Format: ADME, organism-based.
Data set [7] addresses T1, Glucocorticoid receptor. Put plainly: (§1) Antagonist activity at GR in human OVCAR5 assessed as reduction in dexamethasone-induced FKBP5 gene expression incubated for 24 hrs by RT-qPCR method.
The target of data set [8] is T3, Glucocorticoid receptor (Homo sapiens) (UniProt P04150).
T3 sequence (whole entry): T1 sequence (P04150 whole entry)
The description is as §1.

For data set [9], the target named is T4, Glucocorticoid receptor (Canis lupus familiaris, UniProt A0A8C0QLS2).
T4 sequence (A0A8C0QLS2 whole entry): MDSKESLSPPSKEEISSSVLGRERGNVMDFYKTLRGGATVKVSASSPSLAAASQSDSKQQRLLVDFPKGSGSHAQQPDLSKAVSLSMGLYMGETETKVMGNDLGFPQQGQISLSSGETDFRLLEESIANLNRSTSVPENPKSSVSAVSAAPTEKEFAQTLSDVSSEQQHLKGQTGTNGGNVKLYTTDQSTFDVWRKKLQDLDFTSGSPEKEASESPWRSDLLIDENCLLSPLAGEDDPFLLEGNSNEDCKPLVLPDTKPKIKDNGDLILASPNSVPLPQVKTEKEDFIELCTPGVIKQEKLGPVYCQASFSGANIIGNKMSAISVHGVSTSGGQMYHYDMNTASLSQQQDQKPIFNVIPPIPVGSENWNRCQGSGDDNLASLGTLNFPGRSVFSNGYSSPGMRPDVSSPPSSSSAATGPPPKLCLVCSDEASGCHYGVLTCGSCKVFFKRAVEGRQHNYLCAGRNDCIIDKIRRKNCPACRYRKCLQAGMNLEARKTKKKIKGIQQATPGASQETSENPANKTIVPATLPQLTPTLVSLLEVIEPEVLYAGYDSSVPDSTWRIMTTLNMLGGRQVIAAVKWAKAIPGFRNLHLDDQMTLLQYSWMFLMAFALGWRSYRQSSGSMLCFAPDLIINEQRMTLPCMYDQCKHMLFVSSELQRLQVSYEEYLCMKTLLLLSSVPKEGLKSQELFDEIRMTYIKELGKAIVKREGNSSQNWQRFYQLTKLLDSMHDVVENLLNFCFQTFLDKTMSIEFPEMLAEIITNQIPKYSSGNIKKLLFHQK
Briefly: Antagonist activity at GR in dog PBMC assessed as reduction in dexamethasone-induced FKBP5 gene expression incubated for 6 hrs by RT-qPCR method. The data set is classed as cell-based.

The target of data set [10] is T4, Glucocorticoid receptor. Briefly: Antagonist activity at GR in dog PBMC assessed as reduction in dexamethasone-induced GILZ gene expression incubated for 6 hrs by RT-qPCR method. Format: cell-based.
Data set [11] deals with T2, Androgen receptor. Put plainly: Agonist activity at AR in human LNAR cells assessed as increase in TMPRSS2 gene expression at 100 nM incubated for 24 hrs by RT-qPCR method. Format: cell-based. The following applies: 0.1 µM.

pIC50: −log10 of the molar value.

In the case of `CC(C)N(C)c1ccc([C@H]2C[C@@]3(C)[C@@H](CC[C@@]3(O)C#CC(C)(C)C)[C@@H]3CCC4=CC(=O)CC[C@@H]4[C@H]32)cc1`, the pIC50 on Glucocorticoid receptor [1] is 8.25; at Glucocorticoid receptor [7], 7.76; on Glucocorticoid receptor [9], 7.61; at Glucocorticoid receptor [10], 7.46. For the same molecule, the bioavailability in data set [2] was 21%. In addition, the Activity result at Androgen receptor [3] and at Androgen receptor [11] was “Not Active” each time. Also, the clearance in [4] was 31.7 mL/min/kg. Also, the half-life in data set [5] was 12.2 h; in data set [6], 4.4 h. Besides, the inhibition result in data set [8] is “Dose-dependent effect”.

One may read the pIC50 as −log10 of the IC50, conventionally taken in molar units. A word on the bioavailability: it is dose-corrected exposure relative to a reference, in per cent. Lower therefore signals poor availability. In general, clearance refers to the volume of plasma or blood freed of the substance per unit of time. A word on the half-life: it is the time needed for the level to fall by half in the phase considered. A high value points to slow decline.
